Laboratory results from paper PMC4529466, “Intradermal insulin infusion achieves faster insulin action than subcutaneous infusion for 3-day wear” (Drug Delivery and Translational Research, 2015).

Tested on: blood glucose
Assay: Postprandial blood glucose pharmacodynamics after meal bolus, 3-day ID vs SC infusion
Assay type: in vivo, human (T1DM patients)
Conditions: SC; for BGavg0–1 / BGmax0–1 / ΔAUC-BG0–1 / ΔBGmax0–1 / BGavg0–1.5 / BGmax0–1.5 / ΔAUC-BG0–1.5 / ΔBGmax0–1.5 / BGavg0–2 / BGmax0–2 / ΔAUC-BG0–2 / ΔBGmax0–2 / BGavg0–4 / BGmax0–4 / ΔAUC-BG0–4 / ΔBGmax0–4 / BG1 / ΔBG1 / BG1.5 / ΔBG1.5 / BG2 / ΔBG2 / BG4 / ΔBG4: mean ± SD; for BG1 / ΔBG1: at 1 h; for BG1.5 / ΔBG1.5: at 1.5 h; for BG2 / ΔBG2: at 2 h; for BG4 / ΔBG4: at 4 h
From the text: This was a single center, open-label, two-period crossover study, randomized by infusion order, in T1DM patients on continuous subcutaneous insulin infusion (CSII). The protocol was approved by an independent ethics committee (Ethikkommission der Ärztekammer Nordrhein, Düsseldorf, Germany), appropriate regulatory bodies (German Federal Institute for Drugs and Medical Devices (BfArM)), and conducted in compliance with good clinical practice (GCP), the Declaration of Helsinki, and applicable regulatory requirements.
The study was completed over a multi-week period consisting of three study visits: a screening visit (V1) and two interventional visits (V2 and V3). After establishing eligibility and enrollment, patients received treatment during two interventional visits: one SC and one ID basal/bolus infusion of insulin aspart (NovoRapid® U-100, Novo Nordisk, Copenhagen, Denmark) administered over 3 days in a randomized order.
Individual meal bolus doses were determined based on patient self-reported insulin to carbohydrate ratios and insulin sensitivity, historical self-reported insulin usage for meal coverage, and clinician review and adjustment of insulin usage during the in-clinic BG stabilization period the evening prior to the first morning meal. Basal insulin infusion rates were initiated based on the patient’s known daily delivery profile and could be adjusted by the clinician to maintain levels within 70–160 mg/dL according to a predetermined sliding scale and hourly changes in glycemia. A continuous glucose monitor (Seven Plus®, DexCom Inc., San Diego, CA) calibrated per manufacturer’s recommendations was applied to continuously monitor glycemia as a safety measure, in addition to periodic blood sampling for BG determination.
After maintaining targeted blood glucose range during the preceding night, bolus insulin doses were administered via the respective infusion catheter prior to standardized breakfast and lunch test meals on each of the three treatment days. Each meal insulin bolus was calculated based on the patient’s insulin sensitivity and previous hours change in BG per sliding scale then delivered immediately prior to breakfast (t = 0 min) and lunch (t = 360 min) consumption. Breakfast was a high glycemic index (60 g carbohydrates) solid meal, and lunch was a mixed meal based on the individual’s calculated daily energy intake and equivalent in caloric composition by day. Breakfast and lunch meals were consumed within 15 min followed by serial blood sampling with BG monitoring for a period of 6 and 4 h, respectively. Patients were asked to remain sedentary for 2 h after meals. Identical study procedures were utilized for the remaining dosing visit days (Fig. 2).
To assess insulin absorption kinetics and glycemic response, blood samples for measurements of insulin aspart and blood glucose in serum were drawn at predefined time points throughout dosing visits. Serial samples for safety BG determination, but not PK analysis, were obtained at a minimum every 2 h. Meal PK/PD analysis samples were acquired immediately pre-bolus and for 4–6 h post-bolus for breakfast and lunch meals, with a higher frequency during the first 2 h to capture insulin and BG peak levels {Post-bolus breakfast time points (min): 0, 10, 15, 20, 25, 30, 35, 40, 45, 50, 55, 60, 65, 70, 80, 90, 120, 150, 180, 210, 240, 300, 330, 360; Post-bolus lunch time points (min): 0, 10, 20, 30, 40, 50, 60, 70, 80, 90, 120, 180, 240, 300}. Sampling times were based on previous clinical study experience for bolus microneedle insulin delivery and had increased sampling frequency in the first 90 min post-delivery to capture the rapid insulin peaks from microneedle ID delivery. Blood samples for evening meal and basal period PK assessment could not be obtained due to daily blood draw volume limits for patient safety. Serum insulin aspart was measured by a third party laboratory (IKFE GmbH, Mainz, Germany) using a validated insulin assay (Invitron ELISA kit). […]

[1] = 0–1 h, Days 1–3 combined, all test meals, n = 150–156
[2] = 0–1 h, across all study days and meals
[3] = 0–1.5 h, Days 1–3 combined, all test meals, n = 150–156
[4] = 0–1.5 h, across all study days and meals
[5] = 0–2 h, Days 1–3 combined, all test meals, n = 150–156
[6] = 0–2 h, across all study days and meals
[7] = 0–4 h, Days 1–3 combined, all test meals, n = 150–156
[8] = Days 1–3 combined, all test meals, n = 150–156

insulin aspart
BG at 1 h: 165 | BGavg0–1 (0–1 h, Day 1, across meals): 138 ± 33.4 mg/dL | BGmax0–1 (0–1 h, Day 1, across meals): 166 ± 40.1 mg/dL | ΔAUC-BG0–1 (0–1 h, Day 1, across meals): 29.1 ± 25.7 mg·h/dL | ΔBGmax0–1 (0–1 h, Day 1, across meals): 57.1 ± 36.0 mg/dL | BGavg0–1 (0–1 h, Day 2, across meals): 147 ± 32.5 mg/dL | BGmax0–1 (0–1 h, Day 2, across meals): 176 ± 39.2 mg/dL | ΔAUC-BG0–1 (0–1 h, Day 2, across meals): 26.7 ± 20.9 mg·h/dL | ΔBGmax0–1 (0–1 h, Day 2, across meals): 55.8 ± 31.0 mg/dL | BGavg0–1 (0–1 h, Day 3, across meals): 145 ± 30.3 mg/dL | BGmax0–1 (0–1 h, Day 3, across meals): 175 ± 37.9 mg/dL | ΔAUC-BG0–1 (0–1 h, Day 3, across meals): 26.5 ± 19.5 mg·h/dL | ΔBGmax0–1 (0–1 h, Day 3, across meals): 57.2 ± 33.0 mg/dL | BGavg0–1 [1]: 143 ± 32.2 mg/dL | BGmax0–1 [1]: 172 ± 39.2 mg/dL | ΔAUC-BG0–1 [1]: 27.5 ± 22.2 mg·h/dL | ΔBGmax0–1 [1]: 56.7 ± 33.3 mg/dL | Intra-subject variability of BGavg [2]: 18.2 %CV | Intra-subject variability of BGmax [2]: 18.1 %CV | BGavg0–1.5 (0–1.5 h, Day 1, across meals): 144 ± 36.0 mg/dL | BGmax0–1.5 (0–1.5 h, Day 1, across meals): 174 ± 43.6 mg/dL | ΔAUC-BG0–1.5 (0–1.5 h, Day 1, across meals): 53.4 ± 46.7 mg·h/dL | ΔBGmax0–1.5 (0–1.5 h, Day 1, across meals): 65.0 ± 42.3 mg/dL | BGavg0–1.5 (0–1.5 h, Day 2, across meals): 154 ± 35.3 mg/dL | BGmax0–1.5 (0–1.5 h, Day 2, across meals): 182 ± 41.7 mg/dL | ΔAUC-BG0–1.5 (0–1.5 h, Day 2, across meals): 50.8 ± 40.9 mg·h/dL | ΔBGmax0–1.5 (0–1.5 h, Day 2, across meals): 61.6 ± 33.2 mg/dL | BGavg0–1.5 (0–1.5 h, Day 3, across meals): 152 ± 33.4 mg/dL | BGmax0–1.5 (0–1.5 h, Day 3, across meals): 182 ± 40.0 mg/dL | ΔAUC-BG0–1.5 (0–1.5 h, Day 3, across meals): 51.3 ± 39.8 mg·h/dL | ΔBGmax0–1.5 (0–1.5 h, Day 3, across meals): 63.9 ± 36.8 mg/dL | BGavg0–1.5 [3]: 150 ± 35.0 mg/dL | BGmax0–1.5 [3]: 179 ± 41.8 mg/dL | ΔAUC-BG0–1.5 [3]: 51.9 ± 42.5 mg·h/dL | ΔBGmax0–1.5 [3]: 63.6 ± 37.6 mg/dL | Intra-subject variability of BGavg [4]: 18.2 %CV | Intra-subject variability of BGmax [4]: 17.9 %CV | BGavg0–2 (0–2 h, Day 1, across meals): 147 ± 39.3 mg/dL | BGmax0–2 (0–2 h, Day 1, across meals): 178 ± 49.1 mg/dL | ΔAUC-BG0–2 (0–2 h, Day 1, across meals): 77.0 ± 73.2 mg·h/dL | ΔBGmax0–2 (0–2 h, Day 1, across meals): 69.7 ± 49.0 mg/dL | BGavg0–2 (0–2 h, Day 2, across meals): 157 ± 38.2 mg/dL | BGmax0–2 (0–2 h, Day 2, across meals): 186 ± 43.4 mg/dL | ΔAUC-BG0–2 (0–2 h, Day 2, across meals): 73.6 ± 63.3 mg·h/dL | ΔBGmax0–2 (0–2 h, Day 2, across meals): 65.5 ± 34.7 mg/dL | BGavg0–2 (0–2 h, Day 3, across meals): 155 ± 36.1 mg/dL | BGmax0–2 (0–2 h, Day 3, across meals): 186 ± 42.4 mg/dL | ΔAUC-BG0–2 (0–2 h, Day 3, across meals): 75.1 ± 63.0 mg·h/dL | ΔBGmax0–2 (0–2 h, Day 3, across meals): 68.1 ± 40.3 mg/dL | BGavg0–2 [5]: 153 ± 38.0 mg/dL | BGmax0–2 [5]: 183 ± 45.1 mg/dL | ΔAUC-BG0–2 [5]: 75.3 ± 66.5 mg·h/dL | ΔBGmax0–2 [5]: 67.8 ± 41.8 mg/dL | Intra-subject variability of BGavg [6]: 19.3 %CV | Intra-subject variability of BGmax [6]: 18.5 %CV | BGavg0–4 (0–4 h, Day 1, across meals): 142 ± 41.2 mg/dL | BGmax0–4 (0–4 h, Day 1, across meals): 179 ± 44.4 mg/dL | ΔAUC-BG0–4 (0–4 h, Day 1, across meals): 133 ± 160 mg·h/dL | ΔBGmax0–4 (0–4 h, Day 1, across meals): 76.5 ± 54.6 mg/dL | BGavg0–4 (0–4 h, Day 2, across meals): 155 ± 44.0 mg/dL | BGmax0–4 (0–4 h, Day 2, across meals): 193 ± 49.3 mg/dL | ΔAUC-BG0–4 (0–4 h, Day 2, across meals): 140 ± 157 mg·h/dL | ΔBGmax0–4 (0–4 h, Day 2, across meals): 72.3 ± 40.0 mg/dL | BGavg0–4 (0–4 h, Day 3, across meals): 156 ± 40.1 mg/dL | BGmax0–4 (0–4 h, Day 3, across meals): 194 ± 41.7 mg/dL | ΔAUC-BG0–4 (0–4 h, Day 3, across meals): 154 ± 148 mg·h/dL | ΔBGmax0–4 (0–4 h, Day 3, across meals): 76.2 ± 40.4 mg/dL | BGavg0–4 [7]: 151 ± 42.0 mg/dL | BGmax0–4 [7]: 188 ± 45.4 mg/dL | ΔAUC-BG0–4 [7]: 142 ± 155 mg·h/dL | ΔBGmax0–4 [7]: 75.0 ± 45.6 mg/dL | Intra-subject variability of BGmax (0–4 h, across all study days and meals): 18.0 %CV | BG1 (Day 1, across meals): 158 ± 43.8 mg/dL | ΔBG1 (Day 1, across meals): 49.0 ± 41.5 mg/dL | BG1 (Day 2, across meals): 169 ± 40.9 mg/dL | ΔBG1 (Day 2, across meals): 48.8 ± 37.9 mg/dL | BG1 (Day 3, across meals): 170 ± 40.9 mg/dL | ΔBG1 (Day 3, across meals): 51.8 ± 37.9 mg/dL | BG1 [8]: 165 ± 42.1 mg/dL | ΔBG1 [8]: 49.8 ± 39.0 mg/dL | BG1.5 (Day 1, across meals): 156 ± 51.2 mg/dL | ΔBG1.5 (Day 1, across meals): 47.5 ± 51.9 mg/dL | BG1.5 (Day 2, across meals): 167 ± 48.3 mg/dL | ΔBG1.5 (Day 2, across meals): 47.2 ± 44.8 mg/dL | BG1.5 (Day 3, across meals): 167 ± 48.3 mg/dL | ΔBG1.5 (Day 3, across meals): 48.9 ± 48.1 mg/dL | BG1.5 [8]: 163 ± 49.3 mg/dL | ΔBG1.5 [8]: 47.9 ± 48.2 mg/dL | BG2 (Day 1, across meals): 152 ± 60.1 mg/dL | ΔBG2 (Day 1, across meals): 43.7 ± 62.7 mg/dL | BG2 (Day 2, across meals): 164 ± 54.2 mg/dL | ΔBG2 (Day 2, across meals): 44.0 ± 51.2 mg/dL | BG2 (Day 3, across meals): 164 ± 52.3 mg/dL | ΔBG2 (Day 3, across meals): 46.2 ± 52.4 mg/dL | BG2 [8]: 160 ± 55.7 mg/dL | ΔBG2 [8]: 44.6 ± 55.6 mg/dL | BG4 (Day 1, across meals): 139 ± 52.4 mg/dL | ΔBG4 (Day 1, across meals): 29.7 ± 53.3 mg/dL | BG4 (Day 2, across meals): 148 ± 59.4 mg/dL | ΔBG4 (Day 2, across meals): 27.7 ± 56.8 mg/dL | BG4 (Day 3, across meals): 153 ± 48.9 mg/dL | ΔBG4 (Day 3, across meals): 35.1 ± 47.2 mg/dL | BG4 [8]: 146 ± 53.7 mg/dL | ΔBG4 [8]: 30.8 ± 52.3 mg/dL | Intra-subject variability of BG (time 1 h, across all study days and meals): 20.2 %CV | Intra-subject variability of BG (time 1.5 h, across all study days and meals): 24.5 %CV | Intra-subject variability of ΔBG (time 2 h, across all study days and meals): 61.4 %CV
